Data: patent publication US6369050B1, “Antibacterial agents” (Fujisawa Pharmaceutical Co., Ltd., priority 1998, dated 2002)
Where two headings read alike, the source gives them in different places. Marks after values point to notes of the source that are not given here.

Key:
K. pneumoniae = test: Checkerboard method MIC, K. pneumoniae (Test Example 1); assay type: cell-based; conditions: for MIC: Klebsiella pneumoniae, antibiotic used alone, read-out: MIC, single use; for MIC, combined use: CFIX and AMPC used combinedly
Method: (§1) Checkerboard method (cf. Hideyo Yamaguchi: “Konnichi no Koseibusshitsu (Antibiotics of today)”, page 411, published by Nanzando)
(§2) The MIC of each antibiotic used singly and the MIC of each combination of antibiotics were determined by the standard method established by the Japan Society of Chemotherapy, using Mueller-Hinton agar medium (MHA, product of Difco) for M. catarrhalis and K. pneumoniae, 5% equine blood agar (MHA+5% equine blood) for S. pneumoniae, and MHA+5% equine blood (chocolate agar) for H. influenzae. A 100-fold dilution of an overnight culture of each bacterial strain was stamp-inoculated and, after 18 hours of incubation at 37° C. (in the case of S. pneumoniae and H. influenzae, in an atmosphere containing 5% carbon dioxide), the MIC was measured (in μg/ml)
(§3) The MIC's of two individual antibiotics and the MIC's of the two respective antibiotics used combinedly were determined by the checkerboard method and the fractional inhibitory concentration index (hereinafter, “FIC index”) was determined according to the equation shown below. [formula]
(§4) ao: MIC of antibiotic A used alone; b: MIC of antibiotic B used alone; a, b: MIC's of antibiotics A and B, respectively, when they are used combinedly.

S. pneumoniae FP1906 = test: Mixed respiratory infection in mice, viable S. pneumoniae in the lung (Test Example 4); assay type: in vivo; conditions: oral, 2 days after infection
Method: (§5) ICR strain male mice (4 weeks old, 5 animals per group) given cyclophosphamide (200 mg/kg, ip) 4 days prior to infection were nasally infected with S. pneumoniae FP1906 (2.0×10^7 cfu/mouse) and K. pneumoniae 15004 (5.5×10^3 cfu/mouse). Each drug was orally administered three times (3, 18 and 26 hours after infection) and, at 2 days after infection, viable cells in the lung were counted.

K. pneumoniae 15004 = test: Mixed respiratory infection in mice, viable K. pneumoniae in the lung (Test Example 4); assay type: in vivo; conditions: oral, 2 days after infection
Method: as §5

[1] = test system: penicillin G-resistant S. pneumoniae; test: Checkerboard method MIC, penicillin G-resistant S. pneumoniae (Test Example 1); assay type: cell-based; conditions: for MIC: Streptococcus pneumoniae, antibiotic used alone, read-out: MIC, single use; for MIC, combined use: CFIX and AMPC used combinedly
Method: as §1, §2, §3, §4

MIC (K. pneumoniae; strain 15004) | MIC (K. pneumoniae; strain 15021) | MIC, combined use (K. pneumoniae; strain 15004) | MIC ([1]; strain FP1884) | MIC ([1]; strain FP1885) | MIC ([1]; strain FP1891) | MIC ([1]; strain FP1906) | MIC, combined use ([1]; strain FP1884) | MIC, combined use ([1]; strain FP1885) | MIC, combined use ([1]; strain FP1891) | MIC, combined use ([1]; strain FP1906) | MIC, combined use (K. pneumoniae; strain 15021) | SMILES | Viable cells in the lung (logarithm), S. pneumoniae (S. pneumoniae FP1906; 10 mg/kg three times) | Viable cells in the lung (logarithm), S. pneumoniae (S. pneumoniae FP1906; 50 mg/kg three times) | Viable cells in the lung (logarithm), K. pneumoniae (K. pneumoniae 15004; 10 mg/kg three times) | Viable cells in the lung (logarithm), K. pneumoniae (K. pneumoniae 15004; 50 mg/kg three times)
100 µg/mL | 25 µg/mL | 50 µg/mL | 0.2 µg/mL | 0.78 µg/mL | 0.39 µg/mL | 0.76 µg/mL | 0.05 µg/mL | 0.39 µg/mL | 0.025 µg/mL | 0.2 µg/mL | – | CC1(C)S[C@@H]2[C@H](NC(=O)[C@H](N)c3ccc(O)cc3)C(=O)N2[C@H]1C(=O)O [AMPC, amoxicillin] | 7.04 logarithm | 5.29^* logarithm | 9.32^*# logarithm | 9.38^*# logarithm
0.05 µg/mL | 0.025 µg/mL | ≦0.00313 μg/ml | 12.5 µg/mL | 6.25 µg/mL | 3.13 µg/mL | 12.5 µg/mL | 0.78 µg/mL | 0.1 µg/mL | 0.78 µg/mL | 1.56 µg/mL | 0.0125 µg/mL | C=CC1=C(C(=O)O)N2C(=O)[C@@H](NC(=O)/C(=N\OCC(=O)O)c3csc(N)n3)[C@H]2SC1 [CFIX, Cefixime] | 8.46^*# logarithm | 8.26^*# logarithm | 4.14 logarithm | 2.34 logarithm
